pIC50, pKd: −log10 of the molar value. “Also recorded” adds a separate entry of the source. Read-outs that look alike come from different tables or passages of the source.

For data set [1], the target named is T1, CYP17A1 (Homo sapiens, UniProt P05093).
T1 sequence (P05093 1-508): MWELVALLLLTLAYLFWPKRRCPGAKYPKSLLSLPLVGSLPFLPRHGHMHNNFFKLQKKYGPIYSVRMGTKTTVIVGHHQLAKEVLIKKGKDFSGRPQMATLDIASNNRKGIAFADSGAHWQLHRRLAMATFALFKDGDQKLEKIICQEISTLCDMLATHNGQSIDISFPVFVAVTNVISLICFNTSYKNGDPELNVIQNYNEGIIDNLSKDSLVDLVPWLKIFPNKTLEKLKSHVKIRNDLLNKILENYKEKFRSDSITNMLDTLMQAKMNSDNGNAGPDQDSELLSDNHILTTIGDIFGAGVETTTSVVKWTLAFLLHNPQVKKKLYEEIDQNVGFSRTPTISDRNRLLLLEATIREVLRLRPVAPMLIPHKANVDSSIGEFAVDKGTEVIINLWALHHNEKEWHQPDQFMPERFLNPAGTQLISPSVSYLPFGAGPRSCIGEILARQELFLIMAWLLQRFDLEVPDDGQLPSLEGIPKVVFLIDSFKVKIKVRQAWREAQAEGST
In words: Ligand binding assay, UV-visible difference spectra titration. The note with it: for spectroscopic evidence of binding to CYP17A1 (heme spectral shift): result in words. As to the method: Ligand binding assays. (Adapted from DeVore, N M, et al. (2009). Drug Metabolism and Disposition, 37(6), 1319-1327.) Ligand interaction with the heme iron was evaluated by titrating ligands into a cuvette containing purified CYP17A1, CYP2D6, or CYP3A4 and measured using a UV-visible scanning spectrophotometer. […] Ligands dissolved in DMSO were added to the sample cuvette and an equal volume of DMSO to the reference cuvette. Difference spectra were recorded from 300-500 nm after equilibration of enzyme and ligand. Binding to the enzyme was measured as the difference in maximal and minimal absorbance: A387-A419 for pregnanolone and 3-formyl pregnanolone, and A435-A393 for 3-formyl pregnanolone-20-isonitrile with CYP17A1; A434-A414 for 3-formyl pregnanolone-20-isonitrile with CYP3A4 and CYP2D6. […] All data fitting was accomplished using GraphPad Prism 9.

The target of data set [2] is T2, CYP17A1 (Homo sapiens, UniProt P05093).
T2 sequence (P05093 24-508 limits assumed): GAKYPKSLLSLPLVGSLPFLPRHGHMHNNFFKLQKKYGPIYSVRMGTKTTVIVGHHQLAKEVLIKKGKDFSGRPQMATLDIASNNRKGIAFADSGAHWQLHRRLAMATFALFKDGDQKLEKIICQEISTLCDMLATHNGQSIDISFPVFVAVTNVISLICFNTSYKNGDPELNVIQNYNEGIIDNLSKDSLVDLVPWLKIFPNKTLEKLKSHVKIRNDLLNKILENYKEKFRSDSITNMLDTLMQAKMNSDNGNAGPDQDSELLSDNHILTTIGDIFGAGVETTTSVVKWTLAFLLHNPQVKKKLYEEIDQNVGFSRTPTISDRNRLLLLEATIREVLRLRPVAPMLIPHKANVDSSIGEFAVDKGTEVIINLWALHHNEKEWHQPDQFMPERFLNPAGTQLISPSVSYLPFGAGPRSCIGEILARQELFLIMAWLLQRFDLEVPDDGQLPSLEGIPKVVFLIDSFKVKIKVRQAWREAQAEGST
In words: Inhibition assay, 17α-hydroxylation of progesterone by CYP17A1. Format: biochemical.
Description: (Adapted from DeVore, NM, Scott, EE. (2012). Nature, 482(7383), 116-119.) Metabolic activity of CYP17A1 was evaluated by measuring 17α-hydroxylation of progesterone as detected HPLC with UV detection at 240 nm. A 1:4 ratio of CYP17A1 to recombinant NADPH-cytochrome P450 reductase was mixed and incubated on ice for 20 minutes. […] Reaction vials were warmed to 37° C. for three minutes, then catalysis was initiated by adding NADPH to a final concentration of 1 mM. After 10 minutes, metabolism was quenched by adding 300 μL of 20% trichloroacetic acid and placed on ice. The reaction vials were centrifuged to pellet the precipitated protein, then the supernatant was injected onto a C18 column (Phenomenex, Luna, 50×4.6 mm) for HPLC. The 30-minute HPLC method ran at 0.8 m/min and started with a mobile phase of 60% acetonitrile, 40% water with 0.2% acetic acid for five minutes, increased to 80% acetonitrile over 10 minutes, held at 80% acetonitrile for five minutes, 100% acetonitrile for five minutes, then returned to 60% acetonitrile to prepare for the next sample. Metabolite elution was normalized to β-estradiol as an internal standard. A standard curve of known product concentrations was used to convert normalized area under curve to amount of product produced. […]

For data set [3], the target named is CYP106A2 (Priestia megaterium, UniProt Q06069). As to the kind of experiment: Optical difference spectrum titration of CYP106A2. Format: binding, bacterial. The note with it: result in words. An excerpt: FIGS. 3A-3C show the optical difference spectra when various compounds are titrated with CYPs. […] The maximum absorbance was at 430 nm and the trough was at 393 nm. […] The trough was at 418 nm.
Chain of CYP106A2 (Q06069 whole entry): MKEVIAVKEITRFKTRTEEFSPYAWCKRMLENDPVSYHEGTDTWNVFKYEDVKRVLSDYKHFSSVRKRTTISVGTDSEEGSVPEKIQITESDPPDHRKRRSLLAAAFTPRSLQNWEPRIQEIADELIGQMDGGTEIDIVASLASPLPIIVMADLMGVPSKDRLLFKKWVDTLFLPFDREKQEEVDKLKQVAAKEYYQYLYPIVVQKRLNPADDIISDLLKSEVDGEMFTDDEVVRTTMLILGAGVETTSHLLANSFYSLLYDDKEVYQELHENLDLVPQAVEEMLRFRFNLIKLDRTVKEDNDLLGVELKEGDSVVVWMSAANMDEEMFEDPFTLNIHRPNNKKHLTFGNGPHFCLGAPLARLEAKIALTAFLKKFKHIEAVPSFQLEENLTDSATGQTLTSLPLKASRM
Ligand binding assays. […] All data fitting was accomplished using GraphPad Prism 9.

Usually pKd stands for the Kd on a negative log10 scale, so that one unit is a factor of ten. On to `C[C@]12CC[C@H](O)CC1=CC[C@@H]1[C@@H]2CC[C@]2(C)C(c3cccnc3)=CC[C@@H]12` [abiraterone, reference compound], for which the negative logarithm of the Kd (pKd) in data set [1] (CYP17A1 0.2 μM, tight binding, only estimates, read-out: Kd) is greater than 7.00.
One may read the pIC50 as the negative decadic logarithm of the IC50, by convention in mol/L. Low values mean a large IC50, high ones a small IC50. Regarding `[C-]#[N+][C@H](C)[C@H]1CC[C@H]2[C@@H]3CC[C@H]4C[C@@H](OC=O)CC[C@]4(C)[C@H]3CC[C@]12C` [Compound 16], in data set [1], the pKd is greater than 7.00 and the “spectroscopic evidence of binding to CYP17A1 (heme spectral shift)” value is “induced the expected heme spectral shift from 417 to 428 nm; also recorded: bound to CYP17A1; also recorded: bind very tightly”. In data set [2] (CYP17A1 progesterone hydroxylation, 11.5 μM progesterone), this compound showed a negative logarithm of the IC50 (pIC50) of 5.89. Also, the “inhibition of CYP17A1 progesterone hydroxylation” value in data set [2] (result in words, FIG. 5B) was “inhibited”.
In the case of “3β-formyl-(R)-(20-isonitrilo)pregnane [20-(R)-16]”, in data set [1], the “spectroscopic evidence of binding to CYP17A1 (heme spectral shift)” value is listed as “binds tightly”. Moreover, the “spectroscopic evidence of binding to CYP106A2 (Fe—CN—R bond formation)” value in data set [3] was “no evidence for formation of a Fe—CN—R bonded complex”; in data set [3] (listed as 3), “no evidence of binding”.

These data come from patent US20240368212A1, “SELECTIVE ISONITRILE INHIBITORS OF CYTOCHROME P450 SUBTYPES” (priority 2021, published 2024).
